Results on 43 compounds are retold here after BindingDB's records for doi:10.7270/Q27H1H0J (Srmlsc, 2008).

This assay addresses T1, M1 family aminopeptidase (Plasmodium falciparum (isolate FcB1 / Columbia), UniProt O96935).
T1 sequence (O96935 whole entry): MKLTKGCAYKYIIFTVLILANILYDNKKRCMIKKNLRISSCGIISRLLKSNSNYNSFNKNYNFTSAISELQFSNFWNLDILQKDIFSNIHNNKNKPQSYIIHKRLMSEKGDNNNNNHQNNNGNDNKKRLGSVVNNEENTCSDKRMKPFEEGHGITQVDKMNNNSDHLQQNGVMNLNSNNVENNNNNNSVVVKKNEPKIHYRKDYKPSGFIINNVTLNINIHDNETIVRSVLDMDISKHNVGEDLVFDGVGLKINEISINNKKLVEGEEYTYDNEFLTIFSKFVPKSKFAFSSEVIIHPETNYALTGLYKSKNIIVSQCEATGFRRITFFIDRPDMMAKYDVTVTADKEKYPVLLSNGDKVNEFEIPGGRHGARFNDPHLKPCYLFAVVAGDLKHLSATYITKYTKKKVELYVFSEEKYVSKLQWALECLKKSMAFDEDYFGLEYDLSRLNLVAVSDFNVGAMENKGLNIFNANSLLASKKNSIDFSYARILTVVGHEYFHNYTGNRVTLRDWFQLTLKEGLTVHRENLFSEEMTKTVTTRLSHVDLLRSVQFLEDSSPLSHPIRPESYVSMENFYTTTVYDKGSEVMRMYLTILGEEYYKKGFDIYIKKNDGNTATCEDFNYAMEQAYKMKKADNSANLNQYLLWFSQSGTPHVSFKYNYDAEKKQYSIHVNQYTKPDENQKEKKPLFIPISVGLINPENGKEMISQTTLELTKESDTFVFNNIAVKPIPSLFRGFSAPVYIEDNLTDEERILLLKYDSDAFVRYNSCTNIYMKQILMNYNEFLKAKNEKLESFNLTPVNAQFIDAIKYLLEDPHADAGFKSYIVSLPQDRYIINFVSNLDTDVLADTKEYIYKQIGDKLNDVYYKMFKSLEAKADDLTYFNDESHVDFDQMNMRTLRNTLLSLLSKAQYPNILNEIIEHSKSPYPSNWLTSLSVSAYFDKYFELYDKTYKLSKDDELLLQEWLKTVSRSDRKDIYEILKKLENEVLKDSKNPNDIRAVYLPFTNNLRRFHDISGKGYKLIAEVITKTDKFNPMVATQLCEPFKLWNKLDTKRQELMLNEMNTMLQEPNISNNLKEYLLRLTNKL
Kind of assay: P. falciparum M1AAP inhibitors, biochemical, fluorogenic H-Leu-NHMec substrate, 1536-well (AID 1445).
`CCc1ccc2oc(-c3ccc(OC)cc3)c/c(=N\c3cccc(C(=O)O)c3)c2c1` [(3-carboxyphenyl)-[6-ethyl-2-(4-methoxyphenyl)-1-benzopyran-4-ylidene]ammonium;tetrafluoroborate] had an IC50 of 11.9 µM. That is a double-digit micromolar value.
For the compound `O=C1C([N+](=O)[O-])=CC=CC1/C=N/NC(=O)C1COc2ccccc2O1` (stereo not drawn) [N'-[(E)-(5-nitro-6-oxo-1-cyclohexa-2,4-dienylidene)methyl]-2,3-dihydro-1,4-benzodioxin-3-carbohydrazide], the IC50 is 31.4 µM. Compared with the last compound, the IC50 is about 2.6-fold higher.
The figure for `CN1CCN(CC2=c3oc(=O)c(=C4C=CCC=N4)cc3C=CC2=O)CC1` [(3E)-8-[(4-methylpiperazin-1-yl)methyl]-3-(1H-pyridin-2-ylidene)chromene-2,7-dione] is 52.2 µM; for `O=C(O)c1cccc(NC(=S)NN=Cc2ccccc2OCc2cccc(Br)c2)c1` [SMR000312741] it is 109 µM; for `CCOC(=O)C1C(=O)C(=Cc2ccc(OCC(=O)O)c(OCC)c2)SC1=Nc1ccc(OC)cc1` (stereo not drawn) [MLS000704394] it is 36.3 µM.
To `CN1C(=O)/C(=C/c2ccc(-c3ccccc3[N+](=O)[O-])o2)S/C1=N/c1ccc(Cl)c(C(=O)O)c1` [2-Chloro-5-[3-methyl-5-[1-[5-(2-nitro-phenyl)-furan-2-yl]-meth-(Z)-ylidene]-4-oxo-thiazolidin-(2Z)-ylideneamino]-benzoic acid] belongs 16.1 µM.
The figure for `Cc1cc(C(=O)NN=CC2C=C(Cl)C=C([N+](=O)[O-])C2=O)[nH]n1` (stereo not drawn) [SMR000414694] is 52.3 µM; for `O=C1NC(=O)C(N=Nc2cc([N+](=O)[O-])ccc2O)C(=O)N1` it is 11.4 µM.
Compound `C#CCOCCOCCOCCNc1nc(N2CCN(C(=O)[C@H](Cc3cc4ccccc4[nH]3)n3cc([C@@H](N)C(C)CC)nn3)CC2)nc(N2CCN(C(=O)[C@H](Cc3cc4ccccc4[nH]3)n3cc([C@@H](N)CC(C)C)nn3)CC2)n1` (stereo partly drawn) [SMR000391064] displayed an IC50 of 54.6 µM.
In turn, `CS(=O)(=O)Nc1nc2n(n1)C(c1ccccc1)CC(c1ccc(Br)cc1)=N2` (stereo not drawn) had a concentration for half-maximal inhibition (IC50) of 45.3 µM.
To `C=c1[nH]n(-c2ccc(Cl)c(C(=O)O)c2)c(=O)c1=Cc1ccc(-c2ccc(C(=O)O)cc2)o1` [SMR000312901] belongs 2.41 µM; to `Nc1nnc(CC(=O)N/N=C/C2C=C([N+](=O)[O-])C=C(Br)C2=O)s1` (stereo not drawn) [2-(5-azanyl-1,3,4-thiadiazol-2-yl)-N'-[(E)-(5-bromanyl-3-nitro-6-oxidanylidene-cyclohexa-2,4-dien-1-ylidene)methyl]ethanehydrazide], 30 µM.
Regarding `Cc1ccc(O)c(NC=C2C(=O)c3ccccc3C2=O)c1` [MLS000104939], it took 71.9 µM to reach half-maximal inhibition (IC50).
The compound `CC(=O)N1N=C(C2C(=O)N(C)C(=O)N(C)C2=O)CC1c1ccccc1` (stereo not drawn) [5-(1-acetyl-5-phenylpyrazolidin-3-ylidene)-1,3-dimethyl-1,3-diazinane-2,4,6-trione] displayed an IC50 of 16 µM.
The figure for `O=C1OC(C(C=Nc2cc(Cl)ccc2O)[N+](=O)[O-])c2ccccc21` (stereo not drawn) [3-[(E)-2-[(5-chloranyl-2-oxidanyl-phenyl)amino]-1-nitro-ethenyl]-3H-2-benzofuran-1-one] is 48.8 µM; for `CC(NNC(=O)c1cc2ccccc2cc1O)=C1C(=O)c2ccccc2C1=O` [N-[1-[1,3-bis(oxidanylidene)inden-2-yl]ethylideneamino]-3-oxidanyl-naphthalene-2-carboxamide] it is 12 µM; for `O=C1N=c2ccc(Br)cc2=C1NNc1nnn[nH]1` [5-bromanyl-3-[2-(2H-1,2,3,4-tetrazol-5-yl)hydrazinyl]indol-2-one] it is 26.5 µM.
To `C=c1c(C#N)c2[nH]c(N)c(C#N)c(C)c-2c1=Cc1ccc(-c2ccccc2C(=O)O)o1` [SMR000277284] belongs 52.2 µM; to `COC1=CC(/C=C(\C#N)c2nc3ccc(C)cc3[nH]2)C=C([N+](=O)[O-])C1=O` (stereo not drawn) [(2Z,3E)-3-(3-methoxy-5-nitro-4-oxocyclohexa-2,5-dien-1-ylidene)-2-(5-methyl-1,3-dihydrobenzimidazol-2-ylidene)propanenitrile], 16.2 µM.
The figure for `O=C(O)Cc1sc(N[N-][CH+]c2ccc(-c3ccc(Cl)c([N+](=O)[O-])c3)o2)nc1O` [MLS000689975] is 54.1 µM; for `CCOC1=CC(/C=N/NC(=O)c2cccs2)C=C([N+](=O)[O-])C1=O` (stereo not drawn) [MLS000698505] it is 103 µM.
In turn, `COC1=CC(/C=C(\C#N)c2nc3ccccc3s2)C=C([N+](=O)[O-])C1=O` (stereo not drawn) [MLS000682120] displayed an IC50 of 11 µM.
As to `COc1ccc(-c2c/c(=N\CCC(=O)O)c3cc(C)ccc3o2)cc1`, half-maximal inhibition (IC50) required 38.9 µM.
As for `N#CC(=NNc1ccc(Cl)cc1)C(=O)c1ccccc1` [2-[(4-chlorophenyl)hydrazono]-3-oxo-3-phenylpropanenitrile], the 50% inhibitory concentration (IC50) was 106 µM.
To `O=C1Nc2ccccc2SC1C=NCc1ccccc1Cl` (stereo not drawn) [2-{[(2-chlorobenzyl)amino]methylene}-2H-1,4-benzothiazin-3(4H)-one] belongs 5.63 µM; to `Cc1ccc2c(c1C)Nc1c(c(=O)c1=O)N2` [SMR000459860], 48.5 µM.
`COC(=O)c1ccc(COc2ccccc2CN=Nc2cccc(C(=O)O)c2)cc1` [MLS000775447] displayed a half-inhibitory concentration (IC50) of 47 µM.
Take `COc1ccccc1-c1nnc(SCC(=O)C(C#N)c2nc3ccccc3[nH]2)n1C1CCCCC1` (stereo not drawn) [SMR000067321]: the IC50 is 52.2 µM. This IC50 and that of the compound before are within 1.5-fold of each other.
The figure for `COC1=CC(C=NNC(=O)C(Cc2c[nH]c3ccccc23)NC(=O)OCc2ccccc2)C=C([N+](=O)[O-])C1=O` (stereo not drawn) [benzyl N-[3-(1H-indol-3-yl)-1-[2-[(E)-(3-methoxy-5-nitro-4-oxocyclohexa-2,5-dien-1-ylidene)methyl]hydrazinyl]-1-oxopropan-2-yl]carbamate] is 4.75 µM; for `CNC(=S)N/N=C1\C(=O)Nc2ccccc21` [1-methyl-3-[(2-oxoindol-3-yl)amino]thiourea] it is 47.9 µM; for `CCOC(=O)C(C=NC(N)=Nc1nc2ccccc2o1)C(=O)OCC` [2-[[[amino-(1,3-benzoxazol-2-ylamino)methylidene]amino]methylidene]propanedioic acid diethyl ester] it is 79.2 µM.
The compound `O=[N+]([O-])c1cc(Br)c(O)c(CN=Nc2nnnn2-c2cccc3ccccc23)c1` [(6E)-2-bromo-6-[[2-(1-naphthalen-1-yltetrazol-5-yl)hydrazinyl]methylidene]-4-nitrocyclohexa-2,4-dien-1-one] had an IC50 of 6.79 µM.
To `CC(NNC(=O)c1cccc(Cl)c1)=C1C(=O)c2ccccc2C1=O` belongs 40.8 µM; to `Cc1ccc(-c2csc(-n3[nH]c(C)c(N=Nc4ccccc4O)c3=O)n2)cc1`, 3.37 µM.
With `O=C(O)c1ccc(-c2ccc(CN=Nc3ccc([N+](=O)[O-])cc3)o2)cc1`, 43.1 µM corresponded to half-maximal inhibition (IC50). Against the preceding compound, the IC50 is about 13-fold higher.
In turn, `NC(=NNC=c1ccc(=C2C=CC(=O)C(C(=O)O)=C2)o1)N[N+](=O)[O-]` [5-(5-{2-[amino(nitroimino)methyl]carbonohydrazonoyl}-2-furyl)-2-hydroxybenzoic acid] yielded an IC50 of 10.2 µM.
Compound `CCOC(=O)C1C(=O)C(=Cc2ccc(OCC(=O)O)c(OC)c2)SC1=Nc1ccc(OC)cc1` (stereo not drawn) [2-[4-[(Z)-[4-ethoxycarbonyl-5-[(4-methoxyphenyl)amino]-3-oxidanylidene-thiophen-2-ylidene]methyl]-2-methoxy-phenoxy]ethanoic acid] had an IC50 of 87.3 µM.
To `O=C(O)c1cc(-c2ccc(CN=Nc3ccc([N+](=O)[O-])cn3)o2)ccc1Cl` [2-chloro-5-[5-[[(5-nitropyridin-2-yl)hydrazinylidene]methyl]furan-2-yl]benzoic acid] belongs 12.7 µM; to `Cc1[nH]n(-c2ccccc2)c(=O)c1C=Nc1ccccc1O`, 12.8 µM; to `C=c1[nH]n(-c2nnc(C)c(=O)[nH]2)c(=O)c1=Cc1ccc(N(CC)CC)cc1` [3-{4-[1-(4-Diethylamino-phenyl)-meth-(Z)-ylidene]-3-methyl-5-oxo-4,5-dihydro-pyrazol-1-yl}-6-methyl-4H -[1,2,4]triazin-5-one], 42.6 µM.
`O=C(O)COc1ccccc1CN=Nc1ccc(S(=O)(=O)Nc2ccc(Cl)cc2)cc1[N+](=O)[O-]` [MLS000774437] showed an IC50 of 38.9 µM.
The figure for `CCOc1ccc(-n2c(O)c(CN=Nc3nnc(C)c(=O)[nH]3)c3ccccc3c2=O)cc1` is 20.9 µM; for `Cc1c(N2C(=O)C(=O)C(C(=O)c3ccc(Br)cc3)C2c2cccnc2)c(=O)n(-c2ccccc2)n1C` (stereo not drawn) [MLS000724383] it is 38.1 µM.

The IC50 is the midpoint of a concentration-inhibition curve. Low values mean greater potency, high ones weaker potency.
